Experimental data taken from patent publication US9133179B2, “2-methoxy-pyridin-4-yl-derivatives” (Actelion Pharmaceuticals Ltd., priority 2011, dated 2015).
Where two headings read alike, the source gives them in different places.

Key:
[1] = system: circulating lymphocytes; assay: Assessment of in vivo efficacy: circulating lymphocytes after oral administration to Wistar rats; design: species or system rat; details: 6 h after oral administration of 10 mg/kg, normotensive male Wistar rats, compared to vehicle group
[2] = target: T1, human S1P1 (EDG1) receptor (Homo sapiens, UniProt P21453); assay: S1P1 β-arrestin recruitment (Tango) assay to determine EC50 values; assay type: cell-based; details: Tango-EDG1 bla U2OS cells, 16 h incubation
T1 construct: host or cells: U2OS (Tango EDG1-bla U2OS)

[3] = system: rat trachea rings; assay: Measurement of isometric force development: constriction of rat trachea rings
Experimental: (§1) Measurement of Isometric Force Development
(§2) Female Wistar rats are euthanized by exposure to CO2. The tracheae are excised and rings from the lower segments are prepared. […] A resting force of 2 g (20 mN) is applied to the ring preparation, and changes in force generation are measured using an isometric force recorder (EMKA Technologies Inc., Paris, France). Viability of rings is assessed by exposure to a depolarizing concentration of KCl (50 mM). Contraction of trachea is expressed as a percentage of the response to KCl.
(§3) The compounds are prepared as stock solutions of 0.3 mM in pure DMSO.

[4] = system: rat trachea rings
Experimental: as §1, §2, §3

[5] = in % of the constriction induced by 50 mM KCl

T1 sequence (P21453 whole entry): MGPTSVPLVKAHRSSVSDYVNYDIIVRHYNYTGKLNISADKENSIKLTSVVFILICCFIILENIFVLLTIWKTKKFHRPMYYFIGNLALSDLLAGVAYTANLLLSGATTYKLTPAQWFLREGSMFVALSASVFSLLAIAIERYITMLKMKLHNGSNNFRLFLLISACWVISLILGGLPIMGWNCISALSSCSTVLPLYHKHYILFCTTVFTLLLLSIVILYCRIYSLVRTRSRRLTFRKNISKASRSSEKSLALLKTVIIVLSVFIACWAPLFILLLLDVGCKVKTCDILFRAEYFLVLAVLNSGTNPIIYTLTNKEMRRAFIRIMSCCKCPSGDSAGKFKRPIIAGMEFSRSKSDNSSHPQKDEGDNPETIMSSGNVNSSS

Molecule | Lymphocyte counts [1] | EC50 [2] | % trachea constriction at 10 nM [3, 5] | % trachea constriction at 30 nM [3, 5] | % trachea constriction at 0.1 μM ([3]; 0.1 μM, in % of the constriction induced by 50 mM KCl) | concentration at which significant (or KCl-comparable) rat trachea constriction is shown [4] | change in vivo at 10 mg/kg ([1]; Rattus norvegicus, Lymphocyte, read-out: Lymphocyte counts) | % trachea constriction at 0.3 μM ([3]; 0.3 μM, in % of the constriction induced by 50 mM KCl) | activation at 0.1 µM ([3]; Rattus norvegicus, read-out: % trachea constriction at 0.1 μM) | activation at 1 µM ([3]; Rattus norvegicus, read-out: % trachea constriction at 1 μM) | concentration at which significant (or KCl-comparable) rat trachea constriction is shown ([3]; rat trachea rings)
4-((2-(4-(5-(2-Cyclopentyl-6-methoxypyridin-4-yl)-1,2,4-oxadiazol-3-yl)-2-ethyl-6-methylphenoxy)ethyl)amino)-4-oxobutanoic acid [Example 50] | −57% | 0.1 nM | <5% | 55% | 103% | 100 nM |  |  |  |  | 
CCc1cc(-c2noc(-c3cc(OC)nc(C4CCCC4)c3)n2)cc(C)c1OCCCC(=O)O [Example 6, 4-(4-(5-(2-Cyclopentyl-6-methoxypyridin-4-yl)-1,2,4-oxadiazol-3-yl)-2-ethyl-6-methylphenoxy)butanoic acid] |  | 0.2 nM | <5% | <5% |  |  | -53% | 91% | < 5% | 110% | 300 nM
